Experiment: Bioavailability in vivo in the rat after intraduodenal administration
Experimental: The formulations, A to D, respectively, were tested in vivo in the rat model using intraduodenally catheterized, nonanesthetized animals. Formulations were given as a bolus. Blood samples were withdrawn at certain time points for up to 4 hours after administration of the different formulations. The concentrations of HOOC—CH2—(R)-Cgl-Aze-Pab were analyzed in the plasma and the bioavailabilities calculated from the Area under the curve (AUC) using standard pharmacokinetic methods (Rowland and Tozer, Clinical Pharmacokinetics, concepts and applications, 1980).
The bioavailability increased tenfold to twentyfold when the different formulations mentioned in the invention were used, as compared to controls where only phosphate buffer of pH 8 was used (1). Formulation B was also tested in human healthy subjects using enteric coated capsules for administration directly to the duodenum. The results from the human study also indicate a tenfold increased absorption as compared to a control tablet or solution of the thrombin inhibitor base only.

CCCCCCCC(=O)OCC(O)CO (stereo not shown) [glyceryl mono-octanoate(1-monocaprylin), glyceryl mono-octanoate]
Enhancing effect, glycerides from different sources compared: most efficient enhancing effect

From patent publication US6673365B1, “Formulation for treatment of thromboembolism” (priority 1996, dated 2004)
